Key:
Hela = assay: Cell inhibition assay (SRB cell viability), Hela; assay type: cell-based; settings: Homo sapiens, HeLa, 72 h, Hela cells
Description: (§1) The corresponding cancer cell lines (Hela, U937 and HUT) growing in log phase were harvested and seeded at 1000 cells/well (200 ul final volume) into 96-well tissue culture plates. Following 24 h of cell growth cells were treated with compounds (final concentration of 20 uM). Plates were then re-incubated for a further 72 h before a sulphorhodamine B (SRB) cell viability assay was conducted according to Skehan 1990 J Natl Canc Inst 82, 1107-1112.
(§2) Data were expressed as a percentage inhibition of the control, measured in the absence of inhibitor, as follows: — % inhibition=100−((S^i/S^o)×100) where S^i is the signal in the presence of inhibitor and S^o is the signal in the presence of DMSO.
(§3) IC50 values were determined by non-linear regression analysis, after fitting the results of eight data points to the equation for sigmoidal dose response with variable slope (% activity against log concentration of compound), using Graphpad Prism software.
(§4) Results of testing the compounds of the examples in this assay are given in the third- fifth columns of Table 1.

U937 = assay: Cell inhibition assay (SRB cell viability), U937; assay type: cell-based; settings: Homo sapiens, U-937, 72 h, U937 cells
Description: as §1, §2, §3, §4

HUT = assay: Cell inhibition assay (SRB cell viability), HUT; assay type: cell-based; settings: 72 h, HUT cells
Description: as §1, §2, §3, §4

[1] = biological target: histone deacetylase activity (HeLa nuclear extract); assay: HDAC fluorescent activity assay (Biomol Fluor de Lys), HeLa nuclear extract; assay type: biochemical; settings: Fluor de Lys substrate
Description: The ability of compounds to inhibit histone deacetylase activities was measured using the commercially available HDAC fluorescent activity assay from Biomol. In brief, the Fluor de Lys™ substrate, a lysine with an epsilon-amino acetylation, is incubated with the source of histone deacetylase activity (HeLa nuclear extract) in the presence or absence of inhibitor.
Deacetylation of the substrate sensitises the substrate to Fluor de Lys™ developer, which generates a fluorophore. Thus, incubation of the substrate with a source of HDAC activity results in an increase in signal that is diminished in the presence of an HDAC inhibitor.
Data are expressed as a percentage of the control, measured in the absence of inhibitor, with background signal being subtracted from all samples, as follows: — % activity=((S^i−B)/(S^o−B))×100 where S^i is the signal in the presence of substrate, enzyme and inhibitor, S^o is the signal in the presence of substrate, enzyme and the vehicle in which the inhibitor is dissolved, and B is the background signal measured in the absence of enzyme.
as §3
Histone deacetylase activity from crude nuclear extract derived from HeLa cells was used for screening. The preparation, purchased from 4C (Seneffe, Belgium), was prepared from HeLa cells harvested whilst in exponential growth phase. The nuclear extract is prepared according to Dignam JD1983 Nucl. Acid. Res. 11, 1475-1489, snap frozen in liquid nitrogen and stored at −80° C. The final buffer composition was 20 mM Hepes, 100 mM KCl, 0.2 mM EDTA, 0.5 mM DTT, 0.2 mM PMSF and 20% (v/v) glycerol.
Results of testing the compounds of the examples in this assay are given in the second column of Table 1 below.

Compound	IC50 (Hela) [nM]	IC50 (U937) [nM]	IC50 (HUT) [nM]	IC50 [1] [nM]
CC(=O)N[C@@H](CCCOc1ccc(CNCc2ccc3cc(C(=O)NO)sc3c2)cc1)C(=O)OC1CCCC1 [Example 21, (S)-2-Acetylamino-5-(4-{[(2-hydroxycarbamoyl-benzo[b]thiophen-6-ylmethyl)-amino]-methyl}-phenoxy)-pentanoic acid cyclopentyl ester]	330 to 3300	330 to 3300	< 330	< 100
O=C(NO)c1cc2ccc(CNCc3ccc(OCCC[C@H](NC4CCCCC4)C(=O)OC4CCCC4)cc3)cc2s1 [Example 22, (S)-2-Cyclohexylamino-S-(4-{[(2-hydroxycarbamoyl-benzo[b]thiophen-6-ylmethyl)-amino]-methyl}-phenoxy)-pentanoic acid cyclopentyl ester]	330 to 3300	330 to 3300	330 to 3300	101 to 1000
N[C@H](C(=O)OC1CCCC1)c1ccc(Oc2ccc(CNCc3ccc4cc(C(=O)NO)sc4c3)cc2)cc1 [Example 24, (S)-Amino-[4-(4-{[(2-hydroxycarbamoyl-benzo[b]thiophen-6-ylmethyl)-amino]-methyl}-phenoxy)-phenyl]-acetic acid cyclopentyl ester]	330 to 3300	< 330	< 330	< 100
N[C@@H](Cc1ccc(Oc2ccc(CNCc3ccc4cc(C(=O)NO)sc4c3)cc2)cc1)C(=O)OC1CCCC1 [Example 26, (S)-2-Amino-3-[4-(4-{[(2-hydroxycarbamoyl-benzo[b]thiophen-6-ylmethyl)-amino]-methyl}-phenoxy)-phenyl]-propionic acid cyclopentyl ester]	330 to 3300	< 330	< 330	< 100
N[C@@H](CC1CCC(Oc2ccc(CNCc3ccc4cc(C(=O)NO)sc4c3)cc2)CC1)C(=O)OC1CCCC1 (stereo partly drawn) [Example 28, 2-(S)-Amino-3-[4-(4-{[(2-hydroxycarbamoyl-benzo[b]thiophen-6-ylmethyl)-amino]-methyl}-phenoxy)-cyclohexyl]-propionic acid cyclopentyl ester]	330 to 3300	< 330	< 330	< 100
NC(C(=O)OC1CCCC1)C1CCC(Oc2ccc(CNCc3ccc4cc(C(=O)NO)sc4c3)cc2)CC1 (stereo not drawn) [Example 30, Amino-[4-(4-{[(2-hydroxycarbamoyl-benzo[b]thiophen-6-ylmethyl)-amino]-methyl}-phenoxy)-cyclohexyl]-acetic acid cyclopentyl ester]	330 to 3300	< 330	< 330	< 100
